Read-outs that look alike come from different tables or passages of the source.
Columns and labels:
[1] = tested on: Leishmania amazonensis promastigotes; assay: Leishmanicidal activity against promastigotes (alamarBlue assay; screening at 10 µM and IC50); assay type: cell-based; details: for IC50 / inhibition at 10 µM: 72 h; for IC50: read-out: Leishmania amazonensis Promastigotes IC50; for Selectivity Index (CC50/IC50), promastigotes: macrophage CC50 / promastigote IC50; for inhibition at 10 µM: first screening, read-out: % of inhibition at 10 µM (against L. amazonensis promastigotes)
Description: For the experiments, promastigotes of Leishmania amazonensis strain (MHOM/BR/77/LTB0016) were used; they were maintained in RPMI 1640 medium (Gibco, Massachusetts, USA) at 26 °C. […] Subsequently, the plates were analyzed on an EnSpire multimode plate reader (PerkinElmer, MA, USA) to measure their fluorescence after 72 h. […] To this end, serial dilutions were performed in 96 well plates, and incubated with the parasites for 72 h after adding alamarBlue®. Next, the plates were analyzed on the EnSpire plate reader and the IC50 values were calculated by using SigmaPlot 14.0 (Systat Software Inc., Chicago, IL, USA). Each concentration was tested in duplicate and in three independent experiments for all the compounds.

[2] = tested on: Leishmania amazonensis intracellular amastigote; assay: Intracellular amastigote activity (parasite rescue and transformation assay); assay type: cell-based; details: for IC50: Leishmania amazonensis, Macrophage, read-out: Leishmania amazonensis Intracellular Amastigote IC50; for Selectivity Index (CC50/IC50), intracellular amastigote: macrophage CC50 / amastigote IC50
Description: The intracellular amastigote activity was measured by parasite rescue and transformation assay, also performed according to Jain et al. […] The macrophages were placed in a 96 well plate at a density of 2 × 10^5/mL in DMEM and incubated for 5 h. […] After the incubation, the excess promastigotes were washed off and serial dilutions of the compounds were added. After 24 h of incubation, we removed the medium and added 30 μL of Schneider medium with 0.05% SDS to break the macrophages. The plate was shaken for 30 s and a further 180 μL of medium was added to each well. The plates were then incubated at 26 °C for 72 h for the transformation of the rescued amastigote into promastigotes. AlamarBlue® was added and the plates were measured and analyzed as discussed above.

[3] = Cytotoxic activity against murine macrophages (alamarBlue); details: mouse
[4] = tested on: Leishmania amazonensis promastigotes; assay: ATP levels (CellTiter-Glo); assay type: cell-based; details: IC90 of the compounds, 24 h
Description: To detect alterations due to the different treatments on the cellular ATP levels, CellTiter-Glo (Promega) was utilized. […] Finally, luminescence was measured on the EnSpire spectrophotometer (Perkin Elmer). The experiment was performed at least three times in duplicate on different days.

[5] = tested on: L. amazonensis promastigotes; assay: Reactive oxygen species detection (CellROX Deep Red); assay type: cell-based, Leishmania amazonensis; details: IC90 of the compounds, 24 h
Description: After 30 min in darkness, the cells were observed under a fluorescent inverted microscope EVOS FL (Life Technologies, Thermo Fisher Scientific, Waltham, MA, USA). This staining was performed three times in independent tests. A positive control was performed as the internal control and corresponded to cells in which ROS production was achieved through the incubation of parasites with 600 µM hydrogen peroxide 30 min before detection.

[6] = tested on: L. amazonensis promastigotes; assay: Phosphatidylserine externalization (annexin V / propidium iodide, Tali); assay type: cell-based, Leishmania amazonensis; details: IC90, 24 h (Figure 4 legend: 48 h)
Text: To measure the level of population that experiments phosphatidylserine externalization from the inner to the outer part of the cytoplasmic membrane, an Apoptosis kit for Tali (Invitrogen, Thermo Fisher Scientific, Waltham, MA, USA) was utilized. The kit employs annexin-v, which binds to the external phosphatidylserine, and propidium iodide, that penetrates dead cells, to classify the population of the cells as: alive ([…]), dead (propidium stained), and apoptotic (annexin stained). […] A minimum of three independent experiments were performed for this assay. The cells were then quantified by the image-based cytometer Tali® (Life Technologies, Thermo Fisher Scientific, Waltham, MA, USA).

[7] = tested on: CYP2C9; design: method as in mmv.org; details: human cytochrome; ref mmv.org; cited from earlier work
[8] = tested on: CYP2D6; design: method as in mmv.org; details: human cytochrome; ref mmv.org; cited from earlier work
[9] = design: method as in mmv.org; details: ref mmv.org; cited from earlier work
[10] = tested on: intracellular amastigotes of L. donovani; details: cited from earlier work
[11] = tested on: Trypanosoma brucei brucei trypomastigotes; design: method as in PMID 28674055, PMID 19091562; details: cited from earlier work
[12] = tested on: L. donovani promastigotes; design: method as in PMID 32280200; details: cited from earlier work
[13] = tested on: T. evansi trypomastigotes; design: method as in PMID 32112721; details: cited from earlier work
[14] = tested on: NADPH oxidase 4; design: method as in PMID 20731357; details: cited from earlier work
[15] = tested on: T. cruzi intracellular amastigotes; design: method as in PMID 19091562; details: cited from earlier work
[16] = tested on: Plasmodium falciparum; design: method as in PMID 19091562; details: cited from earlier work
[17] = tested on: methionine aminopeptidase; design: method as in PMID 28674055; details: cited from earlier work
[18] = tested on: promastigotes; details: read-out: IC50 against promastigotes, cited from earlier work
[19] = tested on: intracellular amastigotes; details: read-out: IC50 against intracellular amastigotes, cited from earlier work
[20] = Leishmania amazonensis, alamarBlue
[21] = 24 h treatment of infected macrophages, rescue 72 h

| Compound | Selectivity Index (CC50/IC50), promastigotes [1] | IC50 [1, 20] [µM] | IC50 [2, 21] [µM] | CC50 at 24 h ([3]; J774A.1 murine macrophages) [µM] | IC50 ([1]; alamarBlue) [µM] | inhibition at 10 µM ([1]; Leishmania amazonensis) [%] | Selectivity Index (CC50/IC50), intracellular amastigote [2] | ROS accumulation (CellROX Deep Red fluorescence) [5] | IC50 [7] [µM] | IC50 [8] [µM] | Glutathione Reactivity [9] | Activity against Trypanosoma brucei brucei trypomastigotes [11] | other results |
| --- | --- | --- | --- | --- | --- | --- | --- | --- | --- | --- | --- | --- | --- |
| COc1nc2ccc(Br)cc2cc1[C@@H](c1ccccc1)[C@@](O)(CCN(C)C)c1cccc2ccccc12 [Compound 1, Bedaquiline, reference compound] | >1.56 |  |  |  |  |  |  |  |  |  |  |  | IC50 ([1]; Leishmania amazonensis): 6.43 ± 1.06 µM; IC50 [2]: > 10 µM; CC50 at 24 h [3]: > 10 µM |
| N#Cc1nc(-c2ccccc2)oc1S(=O)(=O)c1ccc(Cl)cc1 [Compound 2] | >2.48 | 4.03 ± 0.73 | > 10 | > 10 |  |  |  |  |  |  |  |  |  |
| Cn1c(=O)c2c(S(C)(=O)=O)snc2n(C)c1=O [Compound 4] | 2.94 | < 2 | > 10 | 4.3 ± 0.16 | 1.44 ± 0.24 |  |  |  |  |  |  |  |  |
| C[C@H](c1ccc2c(c1)CCCC2)N(C)c1ncc2c(N)nc(N)nc2n1 [Compound 5, 2-N-Methyl-2-N-[(1R)-1-(5,6,7,8-tetrahydronaphthalen-2-yl)ethyl]pyrimido [4,5-d]pyrimidine-2,5,7-triamine] | >17.06 | 0.59 ± 0.08 | 1.25 ± 0.28 | > 10 |  | 90 | >8.00 | too damaged to contain the dye | > 20 | > 20 | Medium | activity | ATP levels [4]: strong decrease; Dead population (propidium iodide stained) [6]: higher percentage; Translocation of phosphatidylserine, part of the parasite population [6]: higher than 50%; Anti-leishmanial activity (L. donovani) ([10]; stage not clearly stated for this compound): activity |
| CCCn1c(NC(=O)c2ccc3ccccc3n2)nc2ccccc21 [Compound 6] | >2.54 | 3.93 ± 0.64 | 8.52 ± 0.67 | > 10 |  |  | >1.17 |  |  |  | medium |  |  |
| CN1CCC(NCc2cccc(-c3ccc(S(=O)(=O)NCc4ccccc4)cc3)c2)CC1 [Compound 7, N-Benzyl-4-[3-[[(1-methylpiperidin-4-yl)amino]methyl]phenyl]benzenesulfonamide] | >5.44 | < 2 | 2.5 ± 0.27 | > 10 | 1.84 ± 0.14 | 91 | >4.00 | accumulation of ROS | > 20 | > 20 | No GSH adduct | activity |  |
| CN1CCN(CCCOc2ncc(Nc3ncc(-c4ccc(C(F)(F)F)c(F)c4)nc3C(N)=O)cn2)CC1 [Compound 8] | 3.06 | 2.62 ± 0.4 | 6.85 ± 0.75 | 8.01 ± 1.13 |  |  | 1.17 |  |  |  |  |  |  |
| O=C(Nc1ccc(N2CCNCC2)cc1)c1ccn2ncc(-c3cccc(Cl)c3)c2n1 [Compound 9, 3-(3-Chlorophenyl)-N-(4-piperazin-1-ylphenyl)pyrazolo [1,5-a]pyrimidine-5-carboxamide] | 9.35 | 0.77 ± 0.01 | 6.9 ± 1.79 | 7.22 ± 2.36 |  | 91 | 1.05 | accumulation of ROS | > 20 | > 20 | No GSH adduct | activity | Activity against L. donovani promastigotes [12]: activity; Activity against T. evansi trypomastigotes [13]: active; Inhibition of NADPH oxidase 4 [14]: inhibits |
| c1ccc(-c2nc(NC3CCCCC3)cc(C3CC3)n2)nc1 [Compound 10, N-Cyclohexyl-6-cyclopropyl-2-pyridin-2-ylpyrimidin-4-amine] | >5.40 | < 2 | 1.33 ± 0.36 | > 10 | 1.85 ± 0.39 | 90 | >7.52 | accumulation of ROS | > 20 | > 20 | No GSH adduct | activity | ATP levels [4]: less pronounced decrease; Activity against intracellular amastigotes of L. donovani [10]: activity; Activity against T. cruzi intracellular amastigotes [15]: active; Activity against Plasmodium falciparum [16]: active; Inhibition of methionine aminopeptidase [17]: inhibitor |
| CCCCCCCCCCCCCCCCOP(=O)([O-])OCC[N+](C)(C)C [Miltefosine] | 11.14 |  |  | 72.2 ± 3.06 |  |  | 23.14 |  |  |  |  |  | IC50 ([18]; ref Alonso et al. [15]): 7.8 µM; IC50 ([18]; ref Trinconi et al. [16]): 16.8 µM; IC50 ([19]; ref Alonso et al. [15]): 1.8 µM; IC50 ([19]; ref Trinconi et al. [16]): 2.6 µM |
